Target: T1, human α3β4 channels (Homo sapiens, UniProt P30926+P32297)
T1 construct: host or cells: CHO cells
Test: Use-dependent inhibition of human α3β4 channels expressed in CHO cells (Dynaflow electrophysiology)
Assay type: cell-based
Description: There was an assumption that the dependence on the number of co-applications would be the most relevant to clinical concentrations, since upon the time of exposure in vivo, the number of open channels could reach substantial numbers; perhaps due to channel spontaneous opening, flickering, and endogenous transmitter release as a result of brain activity. All experiments were performed using a conventional Dynaflow (Cellectricon Inc.) electrophysiological system. Dynaflow settings: To achieve continuous exposure to the drug we used following Dynaflow chip loading. An example of standard chip loading for use-dependent experiments with example for 30 μM ACh and 0.1 μM of TC-05231 (racemic mecamylamine). For the following experiments, ACh always consisted of 30 μM and concentrations of compounds were, 0.03, 0.1, 0.3 and 1.0 (μM). FIG. 13 illustrates the settings.
Applications were performed by positioning the cell in front of channel #1 for 1 second, followed by channel #3, then back to channel #1 by rapidly moving the Dynaflow chip, which consisted of both the laminar flow from the channels and the entire bath solution. The additional channels between control and ACh-containing channel were used: (1) to provide the needed space for an additional washout to avoid contaminating the control channels with the agonist solution; and (2) to allow for the necessary amount of time for the Dynaflow stage to reach its optimum scanning speed.
3.1. Establishment of recording baseline: First, pipette with cells moved to channel #3. Then cells were exposed to ACh by moving cells to channel #1 for 1 second and back to channel #3. This movement of cells was repeated 10 times at 30 second intervals;
3.2. Collection data on use-dependent inhibition: After establishment of stable baseline, cells were moved to channel #6 and exposed to a test compound for 30 sec. Then cells were moved to channel #8 for 1 second and back to channel #6 for 30 seconds (total 10 times with intervals 30 seconds); and 3.3. To test reversibility of block (washout): repeat step 1. Note: with this chip setting, during repeated application of acetylcholine plus test compound, there was no interruption in application of compounds. For all calculations, peak current amplitude was normalized to the peak current amplitude evoked by the 10th application of acetylcholine. Experimental Results

T1 sequence (P32297 32-505): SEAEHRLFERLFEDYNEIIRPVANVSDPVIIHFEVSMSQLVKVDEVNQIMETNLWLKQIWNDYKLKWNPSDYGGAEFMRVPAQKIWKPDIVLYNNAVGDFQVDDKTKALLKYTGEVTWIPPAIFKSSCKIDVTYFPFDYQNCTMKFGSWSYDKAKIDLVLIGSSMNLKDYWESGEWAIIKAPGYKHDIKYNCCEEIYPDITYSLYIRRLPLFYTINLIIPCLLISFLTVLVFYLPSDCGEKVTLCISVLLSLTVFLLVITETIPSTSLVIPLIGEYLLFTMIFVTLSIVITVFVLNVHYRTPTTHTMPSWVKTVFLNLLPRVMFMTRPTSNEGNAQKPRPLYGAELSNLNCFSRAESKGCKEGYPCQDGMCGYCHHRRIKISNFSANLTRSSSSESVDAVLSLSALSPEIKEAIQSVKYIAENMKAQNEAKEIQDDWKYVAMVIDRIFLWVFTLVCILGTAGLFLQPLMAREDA
T1 sequence (P30926 22-498): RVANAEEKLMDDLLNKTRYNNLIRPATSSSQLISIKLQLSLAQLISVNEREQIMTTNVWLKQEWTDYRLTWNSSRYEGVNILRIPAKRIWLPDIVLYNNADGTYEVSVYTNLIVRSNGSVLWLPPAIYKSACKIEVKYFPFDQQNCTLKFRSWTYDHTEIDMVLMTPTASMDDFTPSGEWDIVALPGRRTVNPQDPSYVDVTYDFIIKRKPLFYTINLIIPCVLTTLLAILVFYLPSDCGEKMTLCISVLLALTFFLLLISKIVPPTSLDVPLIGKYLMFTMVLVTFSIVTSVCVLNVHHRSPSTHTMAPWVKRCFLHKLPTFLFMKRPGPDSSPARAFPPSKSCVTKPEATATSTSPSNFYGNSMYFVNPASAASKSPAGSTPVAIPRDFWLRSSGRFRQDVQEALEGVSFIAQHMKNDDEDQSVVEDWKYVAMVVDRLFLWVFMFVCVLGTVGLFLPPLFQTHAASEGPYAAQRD

With `CNC1(C)[C@H]2CCC(C2)C1(C)C` (stereo partly drawn) [TC-5214, (S)—N,2,3,3-tetramethylnorbornan-2-amine] the “peak current normalized to 10th ACh application (positive modulation, FIG. 16)” value (30 nM compound + 30 μM ACh, first co-application, control = 100, SEM and n in next columns) was 113.3, the “positive modulation of α3β4 function” value (30 nM, t-test p<0.05) was “weak positive modulation” and the “inhibition of human α3β4 receptor (asymptotes to the curve, FIG. 14)” value (100 nM compound with acetylcholine) was “minor to no detectable inhibition”. The “Inhibition by (%)” value (100 nM compound, after 10 co-applications of 30 uM Ach and compound) was 10% ± 6%, the activity at 0.03 µM (CHO, 30 nM compound + 30 μM ACh, successive grid rows = co-applications 1 to 10, control = 100, read-out: peak current amplitude normalized to 10th ACh application, use-dependent inhibition box) was 113% and the activity at 0.1 µM (CHO, 100 nM compound + 30 μM ACh, successive grid rows = co-applications 1 to 10 at 30 s intervals, control = 100, read-out: peak current amplitude normalized to 10th ACh application, use-dependent inhibition box) was 100%. For the same compound, the inhibition at 0.1 µM (CHO, 100 nM compound, after 10 co-applications of 30 uM Ach and compound, read-out: Inhibition by (%)) was 10.1%, the “recovery (%)” value (after 100 nM compound, following 10 application of Ach (30 uM) alone) was 96% ± 6% and the “recovery / persistence of inhibition after wash out” value (after 30 and 100 nM compound, agonist alone) was “full recovery”.
